# Tests used:
# [1] = Solubility of the ligand in the labeling solution; type: physicochemical; conditions: labeling solution under weak acid
# KB tumor-bearing mice = assay: Biodistribution study in KB tumor-bearing mice; type: in vivo, BALB/c nude mice; conditions: 2 h p.i., labeled under weak acid condition (before the pH was changed to weakly alkaline)
# Method: The biodistribution experiments were divided into normal groups and inhibition groups (n = 3), in which the inhibition group was injected with inhibitor (about 4 × 10^4 µg/kg) 30 min in advance. The KB tumor-bearing mice were decapitated 30 and 120 min after the tail vein injection of 0.1 mL labeled solution (about 7.4 × 10^4 Bq). The heart, liver, lung, kidney, spleen, stomach, bone, muscle, intestine, tumor, blood, and other related tissues and organs were wiped clean and weighed, and the radioactivity count was measured. Each tissue per gram of injection dose (%ID/g) was calculated.
smiles,measurement,setting,value
"[C-]#[N+]CCCCCC(=O)NCCNC(=O)CC[C@H](NC(=O)c1ccc(NCc2cnc3nc(N)[nH]c(=O)c3n2)cc1)C(=O)O [CN5FA, N^2-(4-(((2-Amino-4-oxo-3,4-dihydropteridin-6-yl)methyl)amino)benzoyl)-N^5-(2-(6-isocyanohexanamido)ethyl)-L-glutamine]",Solubility of ligand,[1],poor
same,Liver uptake,KB tumor-bearing mice,52.35 ± 1.19 %ID/g

# — article PMC8348780, “Preparation and Evaluation of Novel Folate Isonitrile ^99mTc Complexes as Potential Tumor Imaging Agents to Target Folate Receptors” (Molecules, 2021)
